# Results reported in patent US6436416B1, “Cosmetic skin conditioning compositions containing high performing retinyl esters” (Unilever Home & Personal Care USA, division of Conopco, Inc., priority 2000, dated 2002).
# Columns and labels:
# Procollagen I = Procollagen I assay; assay type: cell-based, human; conditions: fibroblasts, control at 100%
# From the text: Collagen is a predominant skin protein. Its synthesis decreases with aging or photodamage. The degradation or destruction of collagen […] the tensile strength of the skin causing wrinkles and laxity. Many studies involving human subjects have shown that collagen type I is decreased with increasing severity of photodamage (See Kligman, A., JAMA, (1969), 210, pp. 2377-2380; Lavker, R., J. Inv Derm., (1979), 73, 79-66; Smith J. et al., J. lnv. Derm., (1962), 39, pp. 347-350; and Shuster, S. et al., Br. J. Dermatol., (1975), 93, pp. 639-643); and some correlation in the histology of wrinkles and reduction in collagen levels in the sun-exposed skin has been reported. See Chen, S.; Kiss, I., J. Inv. Derm., (1992), 98. pp. 248-254. Voorhees and colleagues have supported these findings by showing the restoration of collagen type I in photo-damaged human skin by a topical treatment with tretinoin. See Christopher, E., et al., The New Eng. Jou. of Medicine (1993), 329, pp. 530-535. Procollagen I is a precursor of collagen. Increased production of procollagen I in response to a test compound application is a marker of an increased collagen level.
# Seed passage 3 (P3) fibroblasts in 6-well tissue culture treated dishes at a density of ˜10,000 cells/well.
# Culture cells until ˜70% confluent in high glucose Dulbecco's Modified Eagles Medium (DMEM).
# When cells are ˜70% confluent, replace with fresh medium, dose with actives and continue culturing until cells are 100% confluent.
# Remove media and store at 4° C.
# Dilute 20 μl conditioned (treated) media in 200 μl unconditioned DMEM.
# Soak nitrocellulose membrane and 3 sheets of filter paper in 1×TBS (tris buffered saline, pH=7.3).
# Set up Bio-Rad slot blot apparatus with filter paper on bottom, nitrocellulose membrane on top. Add 100 μl TBS/well. Vacuum dry.
# Remove membrane from apparatus and place in blocking solution (5% milk powder in phosphate buffered saline (PBS)) for 1 hr at room temperature or overnight at 4° C.
# Primary antibody-Remove membrane from blocking solution and incubate for 1.5 hours at room temperature or overnight at 4° C. with 1.5 ml rat anti-human procollagen amino-terminal antibody (Chemicon MAB1912) 1:100 in TBS with 0.1% bovine serum albumin (BSA).
# Remove membrane, was 3×(10 minutes/wash) in TBS/0.1% tween 20.
# Secondary antibody-incubate for 1 hour at room temperature or overnight at 4° C. in 2 ml 1:1000 biotinylated anti-rat peroxidase conjugated antibody (Vector Labs).
# Remove membrane from secondary antibody and was 3×(10 minutes/wash) in TBS/0.1% tween 20.
# Preincubate 3 ml PBS with 30 μl each of solutions A and B from Vectastain kit for 30 minutes. […]
# Scan using a laser densitometer and quantified as % over control (with control at 100%).
# [1] = system: CRABP-2 expression of pig skin epidermis; assay: CRABP-2 assay; assay type: cell-based; conditions: topical dose 5 μl in ethanol vehicle, four days, control as 100%
# From the text: Within the cells, retinol and retinoic acid are bound to specific cellular binding proteins. Two of the major proteins are CRABP-1 and CRABP-2 (Roos et al., Pharmacological reviews: 50, 315-333, 1998). These proteins regulate the intracellular concentration of retinoids by acting as either storage or shuttle proteins in retinoid metabolism. The levels of CRABP protein are regulated by the amount of retinoic acid within the cells. Higher cellular levels of retinoids increase the expression of CRABP-2. Therefore, the amount of this protein in the cells is a measure of the retinoid activity of the cells. Skin cells contain high levels of CRABP-2 both in the epidermis and the dermis. CRABP-2 response to retinoid administration in is used as a reproducible measure of retinoid bioactivity that predict human skin responses (Elder et al., J. Invest. Dermatol., 106: 517-521, 1996). Increase in CRABP-2 is also associated with increased epidermal differentiation, and dermal retinoid action. Therefore, in these studies we used CRABP-2 expression of pig skin epidermis as a measure of retinoid activity leading to increased epidermal differentiation (skin conditioning and dry skin benefit) and dermal collagen and extracellular matrix synthesis (antiaging, anti wrinkling benefits).
# Pig skin was received, scrubbed with Vionex detergent, and dermatomed at a thickness of 0.058 cm and allowed to wash in preliminary medium on a shaker for an hour with three solution changes.
# 7 mm punches were taken and allowed to sit in final medium overnight. The next day, the medium was refreshed with final medium 1 mL per well. One day later, the plates received fresh final medium,and topically dosed with 5 μl of the active(s) in an ethanol vehicle.
# After four days, the biopsies will be removed from the plates, washed with PBS in a concial tube, and frozen at −80° C. for future use.
# After thawing, the epidermis was separated and boiled in urea and sample buffer, after which protein quantitation was possible.
# 16% 15 lane acrylamide gels were loaded ewith the appropriate samples and run until all the proteins were separated based upon their molecular weight.
# The gels were transferred onto PVDF membranes at 25 constant Volts for 2.5 hours.
# The membranes were blocked with 5% milk in TBST (Tween 0.05%) for one hour at room temperature.
# Primary Ab exposure 1:1,000 in 1% milk TBS soln for one hour, followed by six washes with TBST over a period of one hour. […]
# The bands in the film were quantified by densitometric scanning, the data from triplicate samples were calculated as % of control and expressed in the following tables as % increase over control (with control as 100%).
SMILES,% over control ([1]; concentration 10^−3 M),% over control ([1]; concentration 10^−4 M),further results
"CCCCCCCCCCC/C=C/CCCCC(=O)OC/C=C(C)/C=C/C=C(C)/C=C/C1=C(C)CCCC1(C)C [Retinyl petroselinate, Retinyl Petroselinate]",522 % over control,,"% over control (Procollagen I; Experiment 1, concentration 10^−6 M, p < 0.05): 110 % over control"
"CCCCCCCCCCCCCCCC(=O)OC/C=C(C)/C=C/C=C(C)/C=C/C1=C(C)CCCC1(C)C [Retinyl Palmitate, reference compound]",444 % over control,,"% over control (Procollagen I; Experiment 3, concentration 10^−7 M, not significant): 24 % over control"
"CCCCC/C=C/CCCCCCCCCCC(=O)OC/C=C(C)/C=C/C=C(C)/C=C/C1=C(C)CCCC1(C)C [Retinyl cis-12-Octadecenoate, Retinyl-cis12-Octadecenoate]",,993 % over control,"% over control (Procollagen I; Experiment 2, concentration 10^−6 M, p < 0.05): 28 % over control"
"CCCCC/C=C/C/C=C/C/C=C/CCCCC(=O)OC/C=C(C)/C=C/C=C(C)/C=C/C1=C(C)CCCC1(C)C [Gamma-retinyl linolenate, Retinyl-cis-6,9,12-Octadecatrienoate]",,882 % over control,"% over control (Procollagen I; Experiment 1, concentration 10^−5 M, p < 0.05): 225 % over control"
